IC50 data for 3 compounds are collected here from patent publication US20170121322A1, “BET-PROTEIN INHIBITING 3,4-DIHYDROPYRIDO[2,3-B]PYRAZINONES WITH META-SUBSTITUTED AROMATIC AMINO- OR ETHER GROUPS” (Bayer Pharma Aktiengesellschaft, priority 2014, published 2017).

The test system of one experiment is B16F10 cells. In words: Cell proliferation assay B16F10 (alamarBlue). The settings on record: Mus musculus, B16-F10, melanoma (BRAF wild-type) cells, 96 hours. The experiment is classed as cell-based. As for the experimental part: (§1) In accordance with the invention, the ability of the substances to inhibit cell proliferation was determined. Cell viability was determined by means of the alamarBlue® reagent (Invitrogen) in a Victor X3 Multilabel Reader (Perkin Elmer). The excitation wavelength was 530 nm and the emission wavelength […].
The B16F10 cells (ATCC, CRL-6475) were seeded at a concentration of 300-500 cells/well in 100 μl of growth medium (DMEM with phenol red, 10% FCS) on 96-well microtitre plates.
(§2) After overnight incubation at 37° C., the fluorescence values (CI values) were determined. Then the plates were treated with various substance dilutions (1E-5 M, 3E-6 M, 1E-6 M, 3E-7 M, 1E-7 M, 3E-8 M, 1E-8 M) and incubated at 37° C. over 96 hours (MOLM-13, B16F10, CHL-1 cells) or 120 hours (MOLP-8 cells). Subsequently, the fluorescence values were determined (CO values). For the data analysis, the CI values were subtracted from the CO values and the results were compared between cells which had been treated with various dilutions of the substance or only with buffer solution. The IC50 values (substance concentration needed for 50% inhibition of cell proliferation) were calculated therefrom.
(§3) The substances were tested in the cell lines in Table 2, which represent the indications specified by way of example: […]

The target in experiment [1] is T1, BRD4 bromo domain 2 [BRD4(2)] (Homo sapiens, UniProt O60885).
T1 construct: N-terminally His6-tagged BRD4(2) (amino acids 357-445); made in house; host or cells: E. coli
Briefly: BRD4(2)/acetylated peptide H4 TR-FRET binding assay. To be noted: His6-BRD4(2) (aa 357-445) vs acetylated histone H4 peptide. In outline:
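His6-BRD4(2) (aa 357-445, E. coli-expressed, 100 nM) pre-incubated 10 min with compound (11 concentrations, 0.1 nM-20 μM, duplicates), then with biotinylated tetra-acetylated H4 peptide in HEPES pH 7.5 buffer, 1 h at 22 °C plus 3 h to overnight at 4 °C. TR-FRET 665/620 ratio; IC50 from 4-parameter fit.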
On the technique in general: In TR-FRET formats the signal depends on donor and acceptor labels being close together.

For another experiment, the system named is MOLP-8 cells. In words: Cell proliferation assay MOLP-8 (alamarBlue). It is filed as cell-based. The settings on record: Homo sapiens, multiple myeloma cells, 120 hours. How it is done: as §1
The MOLP-8 cells (DSMZ, ACC 569) were seeded at a concentration of 4000 cells/well in 100 μl of growth medium (RPMI1640, 20% FCS) on 96-well microtitre plates.
as §2, §3

For a further experiment, the system named is CHL-1 cells. Briefly: Cell proliferation assay CHL-1 (alamarBlue). It is filed as cell-based. The settings on record: Homo sapiens, melanoma (BRAF wild-type) cells, 96 hours. How it is done:
as §1
The CHL-1 cells (ATCC, CRL-9446) were seeded at a concentration of 1000 cells/well in 100 μl of growth medium (DMEM with glutamine, 10% FCS) on 96-well microtitre plates.
as §2, §3
For orientation: Resazurin is reduced to fluorescent resorufin, in cell work by metabolically active cells.

Broadly, the IC50 is the concentration at which inhibition is half-maximal. The low end stands for higher potency, the high end for lower potency. Regarding `C[C@@H]1C(=O)N(C)c2ccc(Nc3cccc(S(C)(=O)=O)c3)nc2N1C1CCN(C)CC1` [Example 11, (3R)-1,3-Dimethyl-4-(1-methylpiperidin-4-yl)-6-{[3-(methylsulphonyl)phenyl]amino}-3,4-dihydropyrido[2,3-b]pyrazin-2(1H)-one], the IC50 in the experiment on B16F10 cells amounted to 445 nM; in experiment [1] it was 75 nM; with MOLP-8 cells, 167 nM; in the experiment with CHL-1 cells it was 109 nM.

Consider `COc1ccc(S(=O)(=O)C(C)C)cc1Nc1ccc2c(n1)N(C1CCN(C)CC1)[C@H](C)C(=O)N2C` [Example 13, (3R)-6-{[5-(Isopropylsulphonyl)-2-methoxyphenyl]amino}-1,3-dimethyl-4-(1-methylpiperidin-4-yl)-3,4-dihydropyrido[2,3-b]pyrazin-2(1H)-one], for which the IC50 in the experiment with B16F10 cells is 59 nM; in experiment [1] it was 62 nM; in the experiment with MOLP-8 cells, 15 nM; with CHL-1 cells, 11 nM.

On to `COc1ccc(S(=O)(=O)C2CC2)cc1Nc1ccc2c(n1)N(C1CCN(C)CC1)[C@H](C)C(=O)N2C` [Example 12, (3R)-6-{[5-(Cyclopropylsulphonyl)-2-methoxyphenyl]amino}-1,3-dimethyl-4-(1-methylpiperidin-4-yl)-3,4-dihydropyrido[2,3-b]pyrazin-2(1H)-one], for which the concentration for half-maximal inhibition (IC50) with B16F10 cells amounted to 81 nM; in experiment [1] it was 67 nM; in the experiment on MOLP-8 cells, 22 nM; in the experiment with CHL-1 cells it was 13 nM.
